What all share (assay): DTP human tumour cell line panel, 48 h
Assay [1] has as its system SNB-19.
Assay [2] relates to OVCAR-4.
In assay [3] the test system is NCI-H226.
In assay [4] the test system is OVCAR-5.
The subject of assay [5] is Hs-578T.
The test system of assay [6] is CCRF-CEM.
For assay [7], the system named is SN12C.
The test system of assay [8] is HCC 2998.
Assay [9] deals with NCI-H23.
For assay [10], the system named is SK-OV-3.
Assay [11] deals with U-251.
The subject of assay [12] is RXF 393.
Assay [13] concerns NCI-H522.
Assay [14] deals with TK-10.
Assay [15] deals with MOLT-4.
Assay [16] concerns SNB-75.
In assay [17] the test system is UACC-257.
In assay [18] the test system is HOP-92.

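Five concentrations, 48 hours, 96-well plates. GI50 marks 50% less growth.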 The source made the active and inactive calls. No stated cut-off is given here; in the data, active = GI50 up to about 1.1 µM and inactive = higher. Where a SMILES comes first, the peptide text is derived from it. Bridges are numbered along the chain shown (N, C = ends). [ ]: non-standard residue; d: D form. The star is where a group is joined. ξ: configuration not given here. PhAc = O=C(Cc1ccccc1)*; ξP = O=C(O)C1CCCN1 A value given as a limit tells only on which side of the number the result lay.

By GI50 is commonly meant the concentration at which growth is held to half of that of the control.

In the case of `COc1ccc(N2C(=O)C3c4[nH]c5ccccc5c4C4CCCCCCCCCC4C3C2=O)cc1` (stereo not given), the GI50 in assay [1], in assay [2], in assay [3], in assay [4], in [5] and in [6] was > 10 µM (inactive) throughout. Moreover, the GI50 in assay [7], in assay [8], in [9], in [10], in [11] and in [12] was > 10 µM (inactive) throughout. Also, the GI50 in [13], in [14], in assay [15] and in assay [16] was > 10 µM (inactive) in each case.
As for `COc1ccc(NC2CC(C)N(C(=O)c3ccccc3)O2)cc1` (stereo not given), the GI50 in assay [1], in assay [2], in [4], in [5], in [6] and in assay [7] was > 10 µM (inactive) each time. The GI50 in assay [8], in [9], in assay [10], in assay [12], in [13] and in assay [14] was > 10 µM (inactive) throughout. The GI50 in assay [17], in assay [15] and in [16] was > 10 µM (inactive) in each case.
As for `Cn1c(NN)nc(-c2ccc([N+](=O)[O-])cc2)c(C#N)c1=O`, the GI50 was 13.5 µM (inactive) in [1]; 15.6 µM (inactive) in [2]; 11 µM (inactive) in assay [3]; 20.8 µM (inactive) in assay [4]; 14.5 µM (inactive) in assay [5]; 25.4 µM (inactive) in assay [6]. In addition, the GI50 in assay [7] is 15.6 µM (inactive); in assay [8], 13.7 µM (inactive); in [9], 13.4 µM (inactive); in [10] it was 14.9 µM (inactive); in [11] it was 17.1 µM (inactive); in [12], 14.9 µM (inactive). The GI50 is 16.4 µM (inactive) in assay [13], 14.3 µM (inactive) in assay [14], 15.7 µM (inactive) in [17] and 20.4 µM (inactive) in assay [16].
With `OC1(c2ccc3ccccc3c2)c2ccc3ccccc3c2C2=NCCN21` (stereo not given), the GI50 in assay [1] is 66.8 µM (inactive); in assay [2], 22.3 µM (inactive); in assay [4] it was > 100 µM (inactive); in assay [5], 24.5 µM (inactive); in assay [6], > 100 µM (inactive); in assay [7], > 100 µM (inactive). In addition, the GI50 in assay [8] was 74.1 µM (inactive); in assay [9], > 100 µM (inactive); in [10], > 100 µM (inactive); in assay [11], 45.7 µM (inactive); in assay [12], 29.4 µM (inactive); in assay [14], 28.3 µM (inactive). The GI50 is > 100 µM (inactive) in [18], > 100 µM (inactive) in assay [17], > 100 µM (inactive) in assay [15] and 24.9 µM (inactive) in [16].
On to `CC(NC(=O)c1ccccc1)NC(=O)C(C)C(=O)Nc1ccccc1` (stereo not given), for which the GI50 in [1] was 27.4 µM (inactive); in assay [2], > 100 µM (inactive); in assay [3], 89.5 µM (inactive); in assay [4], > 100 µM (inactive); in assay [5] it was 32.2 µM (inactive); in assay [6], > 100 µM (inactive). The GI50 in [7] is > 100 µM (inactive); in assay [9], > 100 µM (inactive); in assay [10], > 100 µM (inactive); in [11], > 100 µM (inactive); in assay [12], 89.1 µM (inactive); in assay [13], > 100 µM (inactive). Moreover, the GI50 in assay [14] was 75.2 µM (inactive); in assay [18], 49.1 µM (inactive); in assay [17], > 100 µM (inactive); in assay [15], > 100 µM (inactive); in assay [16] it was 33.3 µM (inactive).
Regarding `O=C(Cc1ccccc1)N[C@@H]1COC(=O)C2CCCN2C(=O)[C@@H]2CCCN2C1=O` (stereo not given in full) (PhAc-[dS]-Pro-[ξP]; ester 1-C), the GI50 in [1], in assay [2], in [3], in [4], in [5] and in assay [6] was > 100 µM (inactive) throughout. For the same molecule, the GI50 in assay [7], in [8], in assay [9], in assay [10], in assay [12] and in assay [14] was > 100 µM (inactive) each time. The GI50 is > 100 µM (inactive) in assay [18], > 100 µM (inactive) in [17], > 100 µM (inactive) in [15] and < 0.01 µM (active) in assay [16].
On to `O=C(O)CC(Nc1ccccc1)C(=O)O` (stereo not given), for which the GI50 in assay [1], in assay [2], in assay [3], in assay [4], in assay [5] and in assay [6] was > 100 µM (inactive) each time. The GI50 in [7], in [9], in [10], in assay [11], in [12] and in [13] was > 100 µM (inactive) in each case. Further, the GI50 in assay [14], in [18], in assay [17], in [15] and in assay [16] was > 100 µM (inactive) in each case.
Turning to `COc1cc(/C=N/n2c(Cc3ccc(Cl)cc3)n[nH]c2=O)cc(OC)c1OC`, the GI50 in assay [1] was > 100 µM (inactive); in assay [2], > 100 µM (inactive); in [3], > 100 µM (inactive); in [4], > 100 µM (inactive); in assay [5], 1.32 µM (inactive); in assay [6] it was > 100 µM (inactive). Besides, the GI50 was > 100 µM (inactive) in assay [7]; 37.7 µM (inactive) in assay [8]; > 100 µM (inactive) in assay [9]; > 100 µM (inactive) in [10]; > 100 µM (inactive) in assay [11]; > 100 µM (inactive) in assay [12]. Also, the results for the GI50 in assay [17], in assay [15] and in assay [16] were 37.5 µM (inactive), > 100 µM (inactive) and 65.2 µM (inactive), respectively.
In the case of `Oc1ccc2ccccc2c1/N=N/c1ccc(Cl)cc1`, the GI50 in assay [1], in assay [2], in assay [3], in [4], in [5] and in assay [6] was > 100 µM (inactive) in each case. Further, the GI50 in assay [7], in [9], in [10], in assay [11], in [12] and in [13] was > 100 µM (inactive) throughout. Further, the GI50 in [14], in assay [18], in assay [17], in assay [15] and in [16] was > 100 µM (inactive) in each case.

Values taken from ChEMBL document CHEMBL1201862, “PubChem BioAssay data set” (2004).
